Our source for the IC50 values is patent publication US20190231751A1, “TREATMENT OF FIBROTIC DISORDERS WITH JUN N-TERMINAL KINASE INHIBITORS” (Imago Pharmaceuticals, Inc., priority 2016, published 2019).

Bounds are passed on as bounds.

Common to all, as to type: biochemical
Experiment [1] concerns the target JNK2 (Homo sapiens, UniProt P45984). The experiment can be described thus: In vitro JNK2 inhibition (Table 1). As for the experimental part: (§1) In vitro assays for the determination of JNK activities are known in the art and exemplary assay formats are described herein.
(§2) IC50 values in Table 1 were determined using the procedures as described in U.S. Pat. No. 8,450,353.

The target in experiment [2] is JNK3 (Homo sapiens, UniProt P53779). In words: In vitro JNK3 inhibition (Table 1). As for the experimental part:
as §1, §2

Experiment [3] deals with JNK1 (Homo sapiens, UniProt P45983). In words: In vitro JNK1 inhibition (Table 1). Here is the method:
as §1, §2

Chain of JNK2 (P45984 whole entry, species assumed): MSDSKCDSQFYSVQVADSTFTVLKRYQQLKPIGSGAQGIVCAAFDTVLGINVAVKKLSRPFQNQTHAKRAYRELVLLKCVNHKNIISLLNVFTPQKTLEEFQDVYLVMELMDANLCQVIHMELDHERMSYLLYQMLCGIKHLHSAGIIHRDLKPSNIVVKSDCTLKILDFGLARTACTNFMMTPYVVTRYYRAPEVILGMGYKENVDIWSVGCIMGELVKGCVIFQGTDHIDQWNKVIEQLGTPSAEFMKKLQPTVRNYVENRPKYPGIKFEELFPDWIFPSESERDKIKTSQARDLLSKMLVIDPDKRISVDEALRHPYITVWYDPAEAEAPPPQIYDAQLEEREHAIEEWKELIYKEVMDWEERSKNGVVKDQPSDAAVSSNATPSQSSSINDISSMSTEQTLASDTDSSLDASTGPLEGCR
Chain of JNK1 (P45983 whole entry, species assumed): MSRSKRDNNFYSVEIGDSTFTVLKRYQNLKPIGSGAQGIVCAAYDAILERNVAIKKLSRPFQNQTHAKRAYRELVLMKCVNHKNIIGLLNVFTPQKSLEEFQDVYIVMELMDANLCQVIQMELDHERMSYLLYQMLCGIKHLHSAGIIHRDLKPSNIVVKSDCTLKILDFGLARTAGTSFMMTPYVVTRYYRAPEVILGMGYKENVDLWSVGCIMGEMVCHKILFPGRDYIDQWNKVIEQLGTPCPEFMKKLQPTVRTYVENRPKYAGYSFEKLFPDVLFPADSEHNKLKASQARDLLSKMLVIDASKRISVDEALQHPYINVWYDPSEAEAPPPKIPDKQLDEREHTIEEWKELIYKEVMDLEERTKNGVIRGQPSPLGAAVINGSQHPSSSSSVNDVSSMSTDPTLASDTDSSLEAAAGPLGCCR
Chain of JNK3 (P53779 whole entry, species assumed): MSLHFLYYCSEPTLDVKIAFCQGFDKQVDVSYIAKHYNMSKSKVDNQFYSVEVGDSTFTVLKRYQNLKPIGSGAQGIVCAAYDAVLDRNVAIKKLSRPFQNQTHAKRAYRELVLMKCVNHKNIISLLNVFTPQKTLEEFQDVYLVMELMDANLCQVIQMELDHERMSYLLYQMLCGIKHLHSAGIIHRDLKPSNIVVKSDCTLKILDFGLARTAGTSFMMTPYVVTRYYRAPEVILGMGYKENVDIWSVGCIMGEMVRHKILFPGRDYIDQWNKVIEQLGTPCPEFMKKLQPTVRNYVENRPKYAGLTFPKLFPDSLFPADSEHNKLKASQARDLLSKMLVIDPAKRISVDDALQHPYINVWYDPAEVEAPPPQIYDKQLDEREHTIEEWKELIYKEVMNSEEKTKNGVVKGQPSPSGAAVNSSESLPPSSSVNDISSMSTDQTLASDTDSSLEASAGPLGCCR

In experiment [1], `COc1ccc(CC(=O)Nc2ccsc2-c2nc(C(F)(F)F)n[nH]2)cc1` [2-(4-methoxyphenyl)-N-(2-(3-(trifluoromethyl)-1H-1,2,4-triazol-5-yl)thiophen-3-yl)acetamide] came in with an IC50 of 10000 to 50000 nM.

In experiment [1], `COc1ccc(CC(=O)Nc2ccsc2-c2nc(C)n[nH]2)cc1` [2-(4-methoxyphenyl)-N-(2-(3-methyl-1H-1,2,4-triazol-5-yl)thiophen-3-yl)acetamide] returned an IC50 of 100 to 10000 nM.

For `COc1ccc(CC(=O)Nc2ccsc2-n2cc(C)cn2)cc1` [2-(4-methoxyphenyl)-N-(2-(4-methyl-1H-pyrazol-1-yl)thiophen-3-yl)acetamide], the IC50 in experiment [1] fell in the range of 10000 to 50000 nM.

As to `COc1ccc(CC(=O)Nc2ccsc2-c2ncco2)cc1` [2-(4-methoxyphenyl)-N-(2-(oxazol-2-yl)thiophen-3-yl)acetamide], in experiment [1], the IC50 was in the range of 10000 to 50000 nM.

For `COc1ccc(CC(=O)Nc2sccc2-c2nnn(C)n2)cc1` [2-(4-methoxyphenyl)-N-(3-(2-methyl-2H-tetrazol-5-yl)thiophen-2-yl)acetamide], in experiment [1], the IC50 is 10000 to 50000 nM.

On to `O=C(Cn1c(=O)ccc2cc(Br)ccc21)Nc1scc(Br)c1-c1nc[nH]n1` [2-(6-bromo-2-oxoquinolin-1(2H)-yl)-N-(4-bromo-3-(1H-1,2,4-triazol-3-yl)thiophen-2-yl)acetamide], for which the IC50 in experiment [2], in experiment [1] and in experiment [3] was less than 100 nM throughout.

Turning to `O=C(Cn1c(=O)ccc2cc(Br)ccc21)Nc1scc(Cl)c1-c1nc[nH]n1` [2-(6-bromo-2-oxoquinolin-1(2H)-yl)-N-(4-chloro-3-(1H-1,2,4-triazol-3-yl)thiophen-2-yl)acetamide], the concentration for half-maximal inhibition (IC50) in experiment [2], in experiment [1] and in experiment [3] was less than 100 nM each time.

Compound `COc1nc(-c2sccc2NC(=O)Cc2cccc3cnccc23)cs1` [2-(isoquinolin-5-yl)-N-(2-(2-methoxythiazol-4-yl)thiophen-3-yl)acetamide] had an IC50 in experiment [1] of 10000 to 50000 nM.

On to `Cn1ncnc1-c1ncsc1NC(=O)Cc1cccc2cnccc12` [2-(isoquinolin-5-yl)-N-(4-(1-methyl-1H-1,2,4-triazol-5-yl)thiazol-5-yl)acetamide], for which the half-maximal inhibitory concentration (IC50) in experiment [1] lay in the range of 100 to 10000 nM.

Consider `O=C(Cn1c(=O)ccc2ncccc21)Nc1scc(Br)c1-c1ncn[nH]1` [IGP002, N-(4-bromo-3-(1H-1,2,4-triazol-5-yl)thiophen-2-yl)-2-(2-oxo-1,5-naphthyridin-1(2H)-yl)acetamide], for which the IC50 in experiment [2], in experiment [1] and in experiment [3] was less than 100 nM in each case.

Turning to `O=C(Cc1cccc2ccccc12)Nc1ccsc1-c1nnco1` [N-(2-(1,3,4-oxadiazol-2-yl)thiophen-3-yl)-2-(naphthalen-1-yl)acetamide], the IC50 in experiment [1] lay in the range of 10000 to 50000 nM.

Take `O=C(Cc1ccc2c(c1)OCCO2)Nc1ccsc1-c1ncn[nH]1` [N-(2-(1H-1,2,4-triazol-5-yl)thiophen-3-yl)-2-(2,3-dihydrobenzo[b][1,4]dioxin-6-yl)acetamide]: in experiment [1], the IC50 lay in the range of 100 to 10000 nM.

In experiment [1], `O=C(CN1C(=O)CCc2ccccc21)Nc1ccsc1-c1c[nH]cn1` [N-(2-(1H-imidazol-4-yl)thiophen-3-yl)-2-(2-oxo-3,4-dihydroquinolin-1(2H)-yl)acetamide] gave an IC50 of 10000 to 50000 nM.

In experiment [1], `O=C(Cc1cccc2cnccc12)Nc1ccsc1-c1csc(Cl)n1` [N-(2-(2-chlorothiazol-4-yl)thiophen-3-yl)-2-(isoquinolin-5-yl)acetamide] showed an IC50 of 10000 to 50000 nM.

Compound `COc1ccc(CC(=O)Nc2ccsc2-c2nc(N)n[nH]2)cc1` [N-(2-(3-amino-1H-1,2,4-triazol-5-yl)thiophen-3-yl)-2-(4-methoxyphenyl)acetamide] returned an IC50 in experiment [1] of 100 to 10000 nM.

In the case of `Cc1n[nH]c(-c2sccc2NC(=O)Cc2ccc(N3CCCC3=O)cc2)n1` [N-(2-(3-methyl-H-1,2,4-triazol-5-yl)thiophen-3-yl)-2-(4-(2-oxopyrrolidin-1-yl)phenyl)acetamide], in experiment [1], the IC50 was in the range of 100 to 10000 nM.

With `COc1ccc(CC(=O)Nc2ccsc2-c2nc(C(C)(C)C)n[nH]2)cc1` [N-(2-(3-tert-butyl-1H-1,2,4-triazol-5-yl)thiophen-3-yl)-2-(4-methoxyphenyl)acetamide], the IC50 in experiment [1] was in the range of 10000 to 50000 nM.

The compound `Cc1nnc(-c2sccc2NC(=O)Cc2cccc3ccccc23)o1` [N-(2-(5-methyl-1,3,4-oxadiazol-2-yl)thiophen-3-yl)-2-(naphthalen-1-yl)acetamide] showed an IC50 in experiment [1] of 10000 to 50000 nM.

With `COc1ccc(CC(=O)Nc2sccc2-c2nn[nH]n2)cc1` [N-(3-(2H-tetrazol-5-yl)thiophen-2-yl)-2-(4-methoxyphenyl)-acetamide], the IC50 in experiment [1] fell in the range of 10000 to 50000 nM.

In experiment [1], `Cc1csc(NC(=O)Cc2cccc3cnccc23)c1-c1nc2ccccc2s1` [N-(3-(benzo[d]thiazol-2-yl)-4-methylthiophen-2-yl)-2-(isoquinolin-5-yl)acetamide] displayed a half-maximal inhibitory concentration (IC50) of 10000 to 50000 nM.

`Cn1cnc(-c2c(Br)csc2NC(=O)CN2C(=O)CCc3ncccc32)n1` [N-(4-bromo-3-(1-methyl-1H-1,2,4-triazol-3-yl)thiophen-2-yl)-2-(2-oxo-3,4-dihydro-1,5-naphthyridin-1(2H)-yl)acetamide]: the IC50 in experiment [2], in experiment [1] and in experiment [3] was less than 100 nM each time.

As for `O=C(Cc1cccc2ncc(F)cc12)Nc1scc(Br)c1-c1nc[nH]n1` [N-(4-bromo-3-(1H-1,2,4-triazol-3-yl)thiophen-2-yl)-2-(3-fluoroquinolin-5-yl)acetamide], the IC50 in experiment [2], in experiment [1] and in experiment [3] was less than 100 nM each time.

For the compound `O=C(Cn1c(=O)ccc2cnccc21)Nc1scc(Br)c1-c1ncn[nH]1` [N-(4-bromo-3-(1H-1,2,4-triazol-5-yl)thiophen-2-yl)-2-(2-oxo-1,6-naphthyridin-1(2H)-yl)acetamide], the IC50 in experiment [2], in experiment [1] and in experiment [3] was less than 100 nM in each case.

Turning to `O=C(CN1C(=O)CCc2ncccc21)Nc1scc(Br)c1-c1ncn[nH]1` [N-(4-bromo-3-(1H-1,2,4-triazol-5-yl)thiophen-2-yl)-2-(2-oxo-3,4-dihydro-1,5-naphthyridin-1(2H)-yl)acetamide], the half-inhibitory concentration (IC50) in experiment [2], in experiment [1] and in experiment [3] was less than 100 nM each time.

Take `O=C(Cn1c(=O)ccc2c(C(F)(F)F)cccc21)Nc1scc(Br)c1-c1ncn[nH]1` [N-(4-bromo-3-(1H-1,2,4-triazol-5-yl)thiophen-2-yl)-2-(2-oxo-5-(trifluoromethyl)quinolin-1(2H)-yl)acetamide]: the IC50 in experiment [2] and in experiment [3] was less than 100 nM in each case.

In the case of `O=C(Cc1cc(F)cc2ncccc12)Nc1scc(Br)c1-c1ncn[nH]1` [N-(4-bromo-3-(1H-1,2,4-triazol-5-yl)thiophen-2-yl)-2-(7-fluoroquinolin-5-yl)acetamide], the 50% inhibitory concentration (IC50) in experiment [2] and in experiment [3] was less than 100 nM each time.

With `O=C(Cc1ccc(F)c2ncccc12)Nc1scc(Br)c1-c1ncn[nH]1` [N-(4-bromo-3-(1H-1,2,4-triazol-5-yl)thiophen-2-yl)-2-(8-fluoroquinolin-5-yl)acetamide], the IC50 in experiment [2] and in experiment [3] was less than 100 nM in each case.

For `O=C(Cc1cccc2ccncc12)Nc1scc(Br)c1-c1ncn[nH]1` [N-(4-bromo-3-(1H-1,2,4-triazol-5-yl)thiophen-2-yl)-2-(isoquinolin-8-yl)acetamide], the concentration for half-maximal inhibition (IC50) in experiment [2] and in experiment [3] was less than 100 nM throughout.

In the case of `O=C(Cc1ccnc2ccccc12)Nc1scc(Br)c1-c1nnc[nH]1` [N-(4-bromo-3-(4H-1,2,4-triazol-3-yl)thiophen-2-yl)-2-(quinolin-4-yl)acetamide], the IC50 in experiment [2] and in experiment [3] was less than 100 nM in each case.

As for `O=C(CN1C(=O)CCc2ncccc21)Nc1scc(Br)c1-c1nccs1` [N-(4-bromo-3-(thiazol-2-yl)thiophen-2-yl)-2-(2-oxo-3,4-dihydro-1,5-naphthyridin-1(2H)-yl)acetamide], the IC50 in experiment [2] and in experiment [3] was less than 100 nM each time.

With `CN1CCN(CCCn2cnc(-c3c(Cl)csc3NC(=O)Cn3c(=O)ccc4cc(C(F)(F)F)ccc43)n2)CC1` [N-(4-chloro-3-(1-(3-(4-methylpiperazin-1-yl)propyl)-1H-1,2,4-triazol-3-yl)thiophen-2-yl)-2-(2-oxo-6-(trifluoromethyl)quinolin-1(2H)-yl)acetamide], the concentration for half-maximal inhibition (IC50) in experiment [2] and in experiment [3] was less than 100 nM throughout.

Turning to `CCc1n[nH]c(-c2c(Cl)csc2NC(=O)CN2C(=O)CCc3ncccc32)n1` [N-(4-chloro-3-(3-ethyl-1H-1,2,4-triazol-5-yl)thiophen-2-yl)-2-(2-oxo-3,4-dihydro-1,5-naphthyridin-1(2H)-yl)acetamide], the IC50 in experiment [2] and in experiment [3] was less than 100 nM throughout.

Turning to `N#Cc1csc(NC(=O)Cc2cccc3ncccc23)c1-c1cnccn1` [N-(4-cyano-3-(pyrazin-2-yl)thiophen-2-yl)-2-(quinolin-5-yl)acetamide], the IC50 in experiment [2] and in experiment [3] was less than 100 nM in each case.

Consider `Cc1csc(NC(=O)Cc2cccc3ncccc23)c1-c1ncn[nH]1` [N-(4-methyl-3-(1H-1,2,4-triazol-5-yl)thiophen-2-yl)-2-(quinolin-5-yl)acetamide], for which, in experiment [1], the IC50 fell in the range of 100 to 10000 nM.

For the compound `Cc1n[nH]c(-c2c(C)csc2NC(=O)Cc2cccc3ncccc23)n1` [N-(4-methyl-3-(3-methyl-1H-1,2,4-triazol-5-yl)thiophen-2-yl)-2-(quinolin-5-yl)acetamide], the IC50 in experiment [2] and in experiment [3] was less than 100 nM each time.

In the case of `O=C(Cn1c(=O)ccc2cc(C(F)(F)F)ccc21)Nc1sc(Cl)cc1-c1ncn[nH]1` [N-(5-chloro-3-(1H-1,2,4-triazol-5-yl)thiophen-2-yl)-2-(2-oxo-6-(trifluoromethyl)quinolin-1(2H)-yl)acetamide], the IC50 in experiment [2] and in experiment [1] was 100 to 10000 nM in each case.
